#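 Five concentrations, 48 hours, 96-well plates. GI50 marks 50% less growth.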 Activity calls are given as the source filed them. Cut-off read from the data, not from the text of the source: active = GI50 up to about 1.1 µM and inactive = higher.
# Tests used:
# Assay in all cases: NCI-60 cell line screen, 48 h
# [1] = test system: 786-0
# [2] = test system: A498
# [3] = test system: A549
# [4] = test system: ACHN
# [5] = test system: BT-549
# [6] = test system: CAKI-1
# [7] = test system: COLO 205
# [8] = test system: DU-145
# [9] = test system: EKVX
# [10] = test system: HCC 2998
# [11] = test system: HCT-116
# [12] = test system: HCT-15
# [13] = test system: HL-60
# [14] = test system: HOP-62
# [15] = test system: HOP-92
# [16] = test system: HT-29
# [17] = test system: Hs-578T
# [18] = test system: IGROV-1
# [19] = test system: K562
# [20] = test system: KM12
# [21] = test system: LOX IMVI
# [22] = test system: M14
# [23] = test system: MCF7
# [24] = test system: MDA-MB-231
# [25] = test system: MDA-MB-435
# [26] = test system: MDA-N
# [27] = test system: MOLT-4
# [28] = test system: NCI-H226
# [29] = test system: NCI-H23
# [30] = test system: NCI-H460
# [31] = test system: NCI-H522
# [32] = test system: NCI/ADR-RES
# [33] = test system: OVCAR-3
# [34] = test system: OVCAR-4
# [35] = test system: OVCAR-5
# [36] = test system: OVCAR-8
# [37] = test system: PC-3
# [38] = test system: RPMI-8226
# [39] = test system: RXF 393
# [40] = test system: SF-268
# [41] = test system: SF-295
# [42] = test system: SF-539
# [43] = test system: SK-MEL-28
# [44] = test system: SK-MEL-2
# [45] = test system: SK-MEL-5
# [46] = test system: SK-OV-3
# [47] = test system: SN12C
# [48] = test system: SNB-19
# [49] = test system: SNB-75
# [50] = test system: SR
# [51] = test system: SW-620
# [52] = test system: T47D
# [53] = test system: TK-10
# [54] = test system: U-251
# [55] = test system: UACC-257
# [56] = test system: UACC-62
# [57] = test system: UO-31
# [58] = test system: CCRF-CEM
smiles,measurement,setting,value
CC(C)(C)[Si](C)(C)OC[C@H](/C=C\CCCC(=O)O)NC1(c2ccccc2)c2ccccc2-c2ccccc21,GI50,[1],14 µM (inactive)
same,GI50,[2],17.5 µM (inactive)
same,GI50,[3],10.7 µM (inactive)
same,GI50,[4],11.8 µM (inactive)
same,GI50,[5],24.5 µM (inactive)
same,GI50,[6],11.2 µM (inactive)
same,GI50,[7],13.6 µM (inactive)
same,GI50,[8],25.9 µM (inactive)
same,GI50,[9],12.2 µM (inactive)
same,GI50,[10],14.5 µM (inactive)
same,GI50,[11],7.29 µM (inactive)
same,GI50,[12],11.2 µM
same,GI50,[13],8.53 µM (inactive)
same,GI50,[14],15.2 µM (inactive)
same,GI50,[15],11.1 µM (inactive)
same,GI50,[16],13.2 µM (inactive)
same,GI50,[17],20 µM (inactive)
same,GI50,[18],16.7 µM (inactive)
same,GI50,[19],5.18 µM (inactive)
same,GI50,[20],15.5 µM (inactive)
same,GI50,[21],12.9 µM (inactive)
same,GI50,[22],16.8 µM (inactive)
same,GI50,[23],10.4 µM (inactive)
same,GI50,[24],14.3 µM (inactive)
same,GI50,[25],13.9 µM (inactive)
same,GI50,[26],20.6 µM (inactive)
same,GI50,[27],5.52 µM (inactive)
same,GI50,[28],11.6 µM (inactive)
same,GI50,[29],14.7 µM (inactive)
same,GI50,[30],15.1 µM (inactive)
same,GI50,[31],18.7 µM (inactive)
same,GI50,[32],9.75 µM (inactive)
same,GI50,[33],12.5 µM (inactive)
same,GI50,[34],14.8 µM (inactive)
same,GI50,[35],23.2 µM (inactive)
same,GI50,[36],16.6 µM (inactive)
same,GI50,[37],6.52 µM (inactive)
same,GI50,[38],4.17 µM (inactive)
same,GI50,[39],10.2 µM (inactive)
same,GI50,[40],13.9 µM (inactive)
same,GI50,[41],16.4 µM (inactive)
same,GI50,[42],16.3 µM (inactive)
same,GI50,[43],16.7 µM (inactive)
same,GI50,[44],11.9 µM (inactive)
same,GI50,[45],11.2 µM (inactive)
same,GI50,[46],20.4 µM (inactive)
same,GI50,[47],11.6 µM (inactive)
same,GI50,[48],32.9 µM (inactive)
same,GI50,[49],29.4 µM (inactive)
same,GI50,[50],4.65 µM (inactive)
same,GI50,[51],22.5 µM (inactive)
same,GI50,[52],7.38 µM (inactive)
same,GI50,[53],24.3 µM (inactive)
same,GI50,[54],14.4 µM (inactive)
same,GI50,[55],10.2 µM (inactive)
same,GI50,[56],12.6 µM (inactive)
same,GI50,[57],19.3 µM (inactive)
COc1ccc(/C=C(\C(=O)OCC(C)C)c2ccc(OC)c(OC)c2)cc1OC,GI50,[1],> 100 µM (inactive)
same,GI50,[2],> 100 µM (inactive)
same,GI50,[3],> 100 µM (inactive)
same,GI50,[4],> 100 µM (inactive)
same,GI50,[5],> 100 µM (inactive)
same,GI50,[6],> 100 µM (inactive)
same,GI50,[58],> 100 µM (inactive)
same,GI50,[7],38.4 µM (inactive)
same,GI50,[8],> 100 µM (inactive)
same,GI50,[9],> 100 µM (inactive)
same,GI50,[10],> 100 µM (inactive)
same,GI50,[11],> 100 µM (inactive)
same,GI50,[12],> 100 µM
same,GI50,[13],> 100 µM (inactive)
same,GI50,[14],74 µM (inactive)
same,GI50,[15],> 100 µM (inactive)
same,GI50,[16],> 100 µM (inactive)
same,GI50,[17],> 100 µM (inactive)
same,GI50,[18],> 100 µM (inactive)
same,GI50,[19],> 100 µM (inactive)
same,GI50,[20],> 10 µM (inactive)
same,GI50,[21],74.6 µM (inactive)
same,GI50,[22],32.5 µM (inactive)
same,GI50,[23],> 100 µM (inactive)
same,GI50,[24],31 µM (inactive)
same,GI50,[25],> 100 µM (inactive)
same,GI50,[26],> 100 µM (inactive)
same,GI50,[27],> 100 µM (inactive)
same,GI50,[28],> 100 µM (inactive)
same,GI50,[29],> 100 µM (inactive)
same,GI50,[30],> 100 µM (inactive)
same,GI50,[31],> 100 µM (inactive)
same,GI50,[32],> 100 µM (inactive)
same,GI50,[33],> 100 µM (inactive)
same,GI50,[34],> 100 µM (inactive)
same,GI50,[35],> 100 µM (inactive)
same,GI50,[36],> 100 µM (inactive)
same,GI50,[37],> 100 µM (inactive)
same,GI50,[38],> 100 µM (inactive)
same,GI50,[39],> 100 µM (inactive)
same,GI50,[40],> 100 µM (inactive)
same,GI50,[41],69.5 µM (inactive)
same,GI50,[42],> 100 µM (inactive)
same,GI50,[43],> 100 µM (inactive)
same,GI50,[44],> 100 µM (inactive)
same,GI50,[45],> 100 µM (inactive)
same,GI50,[47],> 100 µM (inactive)
same,GI50,[48],> 100 µM (inactive)
same,GI50,[49],47.2 µM (inactive)
same,GI50,[50],> 100 µM (inactive)
same,GI50,[51],> 100 µM (inactive)
same,GI50,[52],> 100 µM (inactive)
same,GI50,[53],> 100 µM (inactive)
same,GI50,[54],56.2 µM (inactive)
same,GI50,[55],> 100 µM (inactive)
same,GI50,[56],> 100 µM (inactive)
same,GI50,[57],> 100 µM (inactive)
